Each compound was assayed on barnyardgrass (Echinochloa crus-galli) (assay: Test A pre-/postemergence greenhouse herbicide test, visual injury rating 0-100). Conditions: Postemergence, 125 g ai/ha.
Type: in vivo
Excerpt: (§1) Seeds of plant species selected from barnyardgrass (Echinochloa crus-galli), large (Lg) crabgrass (Digitaria sanguinalis), giant foxtail (Setaria faberii), morningglory (Ipomoea spp.), pigweed (Amaranthus retroflexus), velvetleaf (Abutilon theophrasti), wheat (Triticum aestivum), and corn (Zea mays) were planted into a blend of loam soil and sand and treated preemergence with a directed soil spray using test chemicals formulated in a non-phytotoxic solvent mixture which included a surfactant. At the same time these species were also treated with postemergence applications of test chemicals formulated in the same manner. Plants ranged in height from 2 to 10 cm and were in the one- to two-leaf stage for the postemergence treatment. Treated plants and untreated controls were maintained in a greenhouse for approximately 10 days, after which time all treated plants were compared to untreated controls and visually evaluated for injury. Plant response ratings, summarized in Table A, are based on a 0 to 100 scale where 0 is no effect and 100 is complete control. A dash (-) response means no test result.
`O=C(c1ccccc1)c1cn(CC(F)F)nc1-c1cc(Cl)cc(Cl)c1` [Compound 59] was tested, and the “Plant response rating (0 to 100 scale), Barnyardgrass” value was 0.

Same assay, conditions: Postemergence, 500 g ai/ha
With `O=C(c1ccccc1)c1cn(CC(F)F)nc1-c1cc(Cl)cc(Cl)c1` [Compound 59] the “Plant response rating (0 to 100 scale), Barnyardgrass” value was 0.

Same assay, conditions: Preemergence, 125 g ai/ha
In the case of `O=C(c1ccccc1)c1cn(CC(F)F)nc1-c1cc(Cl)cc(Cl)c1` [Compound 59], the “Barnyardgrass plant response rating (0 = no effect, 100 = complete control)” value is reported as 0.

Same assay, conditions: Preemergence, 500 g ai/ha
For `O=C(c1ccccc1)c1cn(CC(F)F)nc1-c1cc(Cl)cc(Cl)c1` [Compound 59], the “Plant response rating (0 to 100 scale), Barnyardgrass” value was 0.

These compounds were tested on corn (Zea mays) in the same assay as above. Conditions: Postemergence, 125 g ai/ha.
Type: in vivo
Excerpt: as §1
With `O=C(c1ccccc1)c1cn(CC(F)F)nc1-c1cc(Cl)cc(Cl)c1` [Compound 59] the “Plant response rating (0 to 100 scale), Corn” value was 0.

Same assay, conditions: Postemergence, 500 g ai/ha
For `O=C(c1ccccc1)c1cn(CC(F)F)nc1-c1cc(Cl)cc(Cl)c1` [Compound 59], the “Plant response rating (0 to 100 scale), Corn” value was 0.

Same assay, conditions: Preemergence, 125 g ai/ha
With `O=C(c1ccccc1)c1cn(CC(F)F)nc1-c1cc(Cl)cc(Cl)c1` [Compound 59] the “Corn plant response rating (0 = no effect, 100 = complete control)” value was 0.

Same assay, conditions: Preemergence, 500 g ai/ha
For `O=C(c1ccccc1)c1cn(CC(F)F)nc1-c1cc(Cl)cc(Cl)c1` [Compound 59], the “Plant response rating (0 to 100 scale), Corn” value was 0.

The compounds below were run on giant foxtail (Setaria faberii) in the same assay as above. Conditions: Postemergence, 125 g ai/ha.
Type: in vivo
Excerpt: as §1
`O=C(c1ccccc1)c1cn(CC(F)F)nc1-c1cc(Cl)cc(Cl)c1` [Compound 59] was tested, and the “Plant response rating (0 to 100 scale), Foxtail, Giant” value was 0.

Same assay, conditions: Postemergence, 500 g ai/ha
For `O=C(c1ccccc1)c1cn(CC(F)F)nc1-c1cc(Cl)cc(Cl)c1` [Compound 59], the “Plant response rating (0 to 100 scale), Foxtail, Giant” value was 0.

Same assay, conditions: Preemergence, 125 g ai/ha
For `O=C(c1ccccc1)c1cn(CC(F)F)nc1-c1cc(Cl)cc(Cl)c1` [Compound 59], the “Foxtail, Giant plant response rating (0 = no effect, 100 = complete control)” value was 0.

Same assay, conditions: Preemergence, 500 g ai/ha
In the case of `O=C(c1ccccc1)c1cn(CC(F)F)nc1-c1cc(Cl)cc(Cl)c1` [Compound 59], the “Plant response rating (0 to 100 scale), Foxtail, Giant” value is reported as 0.

These compounds were tested on large (Lg) crabgrass (Digitaria sanguinalis) in the same assay as above. Conditions: Postemergence, 125 g ai/ha.
Type: in vivo
Excerpt: as §1
For `O=C(c1ccccc1)c1cn(CC(F)F)nc1-c1cc(Cl)cc(Cl)c1` [Compound 59], the “Plant response rating (0 to 100 scale), Crabgrass, Large” value was 0.

Same assay, conditions: Postemergence, 500 g ai/ha
With `O=C(c1ccccc1)c1cn(CC(F)F)nc1-c1cc(Cl)cc(Cl)c1` [Compound 59] the “Plant response rating (0 to 100 scale), Crabgrass, Large” value was 0.

Same assay, conditions: Preemergence, 125 g ai/ha
In the case of `O=C(c1ccccc1)c1cn(CC(F)F)nc1-c1cc(Cl)cc(Cl)c1` [Compound 59], the “Crabgrass, Large plant response rating (0 = no effect, 100 = complete control)” value is reported as 0.

Same assay, conditions: Preemergence, 500 g ai/ha
With `O=C(c1ccccc1)c1cn(CC(F)F)nc1-c1cc(Cl)cc(Cl)c1` [Compound 59] the “Plant response rating (0 to 100 scale), Crabgrass, Large” value was 0.

The compounds below were run on morningglory (Ipomoea spp.) in the same assay as above. Conditions: Postemergence, 125 g ai/ha.
Type: in vivo
Excerpt: as §1
In the case of `O=C(c1ccccc1)c1cn(CC(F)F)nc1-c1cc(Cl)cc(Cl)c1` [Compound 59], the “Plant response rating (0 to 100 scale), Morningglory” value is reported as 0.

Same assay, conditions: Postemergence, 500 g ai/ha
For `O=C(c1ccccc1)c1cn(CC(F)F)nc1-c1cc(Cl)cc(Cl)c1` [Compound 59], the “Plant response rating (0 to 100 scale), Morningglory” value was 0.

Same assay, conditions: Preemergence, 125 g ai/ha
With `O=C(c1ccccc1)c1cn(CC(F)F)nc1-c1cc(Cl)cc(Cl)c1` [Compound 59] the “Morningglory plant response rating (0 = no effect, 100 = complete control)” value was 0.

Same assay, conditions: Preemergence, 500 g ai/ha
For `O=C(c1ccccc1)c1cn(CC(F)F)nc1-c1cc(Cl)cc(Cl)c1` [Compound 59], the “Plant response rating (0 to 100 scale), Morningglory” value was 0.

Each compound was assayed on pigweed (Amaranthus retroflexus) in the same assay as above. Conditions: Postemergence, 125 g ai/ha.
Type: in vivo
Excerpt: as §1
With `O=C(c1ccccc1)c1cn(CC(F)F)nc1-c1cc(Cl)cc(Cl)c1` [Compound 59] the “Plant response rating (0 to 100 scale), Pigweed” value was 60.

Same assay, conditions: Postemergence, 500 g ai/ha
`O=C(c1ccccc1)c1cn(CC(F)F)nc1-c1cc(Cl)cc(Cl)c1` [Compound 59] was tested, and the “Plant response rating (0 to 100 scale), Pigweed” value was 80.

Same assay, conditions: Preemergence, 125 g ai/ha
For `O=C(c1ccccc1)c1cn(CC(F)F)nc1-c1cc(Cl)cc(Cl)c1` [Compound 59], the “Pigweed plant response rating (0 = no effect, 100 = complete control)” value was 0.

Same assay, conditions: Preemergence, 500 g ai/ha
`O=C(c1ccccc1)c1cn(CC(F)F)nc1-c1cc(Cl)cc(Cl)c1` [Compound 59] was tested, and the “Plant response rating (0 to 100 scale), Pigweed” value was 30.

These compounds were tested on velvetleaf (Abutilon theophrasti) in the same assay as above. Conditions: Postemergence, 125 g ai/ha.
Type: in vivo
Excerpt: as §1
`O=C(c1ccccc1)c1cn(CC(F)F)nc1-c1cc(Cl)cc(Cl)c1` [Compound 59] was tested, and the “Plant response rating (0 to 100 scale), Velvetleaf” value was 50.

Same assay, conditions: Postemergence, 500 g ai/ha
For `O=C(c1ccccc1)c1cn(CC(F)F)nc1-c1cc(Cl)cc(Cl)c1` [Compound 59], the “Plant response rating (0 to 100 scale), Velvetleaf” value was 70.

Same assay, conditions: Preemergence, 125 g ai/ha
For `O=C(c1ccccc1)c1cn(CC(F)F)nc1-c1cc(Cl)cc(Cl)c1` [Compound 59], the “Velvetleaf plant response rating (0 = no effect, 100 = complete control)” value was 0.

Same assay, conditions: Preemergence, 500 g ai/ha
For `O=C(c1ccccc1)c1cn(CC(F)F)nc1-c1cc(Cl)cc(Cl)c1` [Compound 59], the “Plant response rating (0 to 100 scale), Velvetleaf” value was 40.

Each compound was assayed on wheat (Triticum aestivum) in the same assay as above. Conditions: Postemergence, 125 g ai/ha.
Type: in vivo
Excerpt: as §1
In the case of `O=C(c1ccccc1)c1cn(CC(F)F)nc1-c1cc(Cl)cc(Cl)c1` [Compound 59], the “Plant response rating (0 to 100 scale), Wheat” value is reported as 0.

Same assay, conditions: Postemergence, 500 g ai/ha
For `O=C(c1ccccc1)c1cn(CC(F)F)nc1-c1cc(Cl)cc(Cl)c1` [Compound 59], the “Plant response rating (0 to 100 scale), Wheat” value was 0.

Same assay, conditions: Preemergence, 125 g ai/ha
`O=C(c1ccccc1)c1cn(CC(F)F)nc1-c1cc(Cl)cc(Cl)c1` [Compound 59] was tested, and the “Wheat plant response rating (0 = no effect, 100 = complete control)” value was 0.
